Legend:
Type in all cases: in vivo
[1] = Body mass growth of C57B1 mice on high (45%) fat diet, 2 months; details: for Body mass (grams): high fat diet
Description: (§1) The test substance was in the form of an aqueous solution of ultra-low doses of polyclonal rabbit antibodies to human cannabinoid receptor type 1 (ULD anti-CB1), purified on antigen, obtained by hyper-dilution of the initial matrix solution 100^12, 100^30, 100^200 times (mixture of centesimal homeopathic dilutions C12, C30, and C200).
33 male mice of the C57B1 line were used in the study (weight at the beginning of the study: 13.09±0.738 g). The mice received the modified diet with high (45%) fat content and simultaneously either distilled water (control, 0.2 ml/mouse) or Subutramine (10 mg/Kg) or ULD anti-CB1 (0.2 ml/mouse). All ULD anti-CB1 preparations were given intragastrically once a day in the course of 2 months. The mice weight was measured on Philips Cucina HR 239016 (Hungary) electronic scales until beginning to introduce the preparations (initially) and also each week after beginning to introduce them. The body mass growth of the mice was evaluated as a percentage of the initial weight.

[2] = Feed consumption and body mass growth of C57B1 mice on high calorie diet, 5 months
Description: as §1
40 male mice of the C57B1 line were used in the study (weight at the beginning of the study: 13.5-15.5 g). 10 mice received the regular standard feed (standard diet); 30 mice received the standard feed with high calorie additives (high calories diet) and, simultaneously, either distilled water (control, 0.4 ml/mouse) or Subutramine (Meridia 10 mg capsules, Abbott GmbH, Germany) (10 mg/Kg) or ULD anti-CB1 (0.4 ml/mouse). All preparations were given intragastrically once a day in the course of 5 months. The mice consumption of feed was measured before test substances were introduced. The mice consumption of feed was also measured each week thereafter. The consumption of feed was evaluated as an average quantity of food (in grams), consumed by a mouse after 1 and 2 months of the study, and as an average quantity of feed per 10 g of mouse body mass.

[3] = Open field test, motor activity of mice given nicotine; details: nicotine 0.3 mg/kg s.c. over 4 days
Description: The effects of I) the combination of ultra-low doses of polyclonal rabbit antibodies to brain-specific protein S-100 (ULD anti-S100) and ultra-low doses of antibodies to cannabinoid receptor type 1 (ULD anti-CB1), each obtained by hyper-dilution of the initial matrix solution 100^12, 100^30, 100^200 times (mixture of centesimal homeopathic dilutions C12, C30, C200) (ULD anti-S100+ULD anti-CB1), ii) ULD anti-CB1 alone, and iii) ULD anti-S100 alone, on motor activity of mice were studied to evaluate their anti-nicotine properties.
40 white outbred male mice (22-25 g, 1.5 mo.) were used. 10 mice were intact. The rest of the mice were administered nicotine subcutaneously over 4 days at the dose of 0.3 mg/kg, Nicotine administration was preceded (1 hour prior) by intragastrical administration of either distilled water (control, 0.4 ml/mouse), or ULD anti-S100 (0.4 ml/mouse), or ULD anti-CB1 (0.4 ml/mouse), or ULD anti-S100+ULD anti-CB1 (0.4 ml/mouse). 30 minutes after the last administration of nicotine, an “open field” test was conducted. The animals were placed in the center of a TruScan photo-sensory installation (Coulbourn, USA), where the vertical and horizontal locomotor activity of the animals was automatically recorded in the course of two (2) minutes. The “open field” model makes it possible to evaluate the effect of the compounds on the locomotor activity of the animals (Gershenfield H. K., Neumann P. E., Mathis C., Crawley J. N., Li X., Paul S. M. Mapping quntative Trait Loci for Open-Field Behavior in Mice. Behavioral Genetics.—1997.—Vol. 27.—No 3.—p. 201-209, which is incorporated herein by reference in its entirety and for the purpose stated). The installation parameters: size 270×270×360 mm, divided into 64 squares, 2.5×2.5, with 25 mm openings situated in the platform floor, illumination of a 150 watt lamp.

CC(C)CC(N(C)C)C1(c2ccc(Cl)cc2)CCC1 (centres unmarked) [Subutramine]
Body mass (grams) ([1]; week 0 (initial)): 13.82 grams | Δ to initial (body mass growth, percentage of initial weight) ([1]; week 1): −2.6% | Body mass (grams) ([1]; week 1): 13.45 grams | Δ to initial (body mass growth, percentage of initial weight) ([1]; week 2): 21.1% | Body mass (grams) ([1]; week 2): 16.73 grams | Δ to initial (body mass growth, percentage of initial weight) ([1]; week 3): 43.4% | Body mass (grams) ([1]; week 3): 19.82 grams | Δ to initial (body mass growth, percentage of initial weight) ([1]; week 4): 46.1% | Body mass (grams) ([1]; week 4): 20.18 grams | Δ to initial (body mass growth, percentage of initial weight) ([1]; week 5): 51.3% | Body mass (grams) ([1]; week 5): 20.91 grams | Δ to initial (body mass growth, percentage of initial weight) ([1]; week 6): 61.8% | Body mass (grams) ([1]; week 6): 22.36 grams | Δ to initial (body mass growth, percentage of initial weight) ([1]; week 7): 71.1% | Body mass (grams) ([1]; week 7): 23.64 grams | Δ to initial (body mass growth, percentage of initial weight) ([1]; week 8): 65.8% | Body mass (grams) ([1]; week 8): 22.91 grams | Consumption of feed (g per 10 g of body mass) per day ([2]; average over 5 months, M±m): 1.28 ± 0.05 g per 10 g of body mass per da | Consumption of feed (g/mouse) per day ([2]; average over 5 months, M±m): 2.75 ± 1.36 g/mouse per day | decrease of consumption of feed in reference to the control ([2]; intragastrically once a day, in a week): 19.3% | lowered body mass in comparison with the control group ([2]; last twentieth week): 51.5%

CN1CCCC1c1cccnc1 (centres unmarked) [nicotine]
decrease of immobility time in comparison with the intact animals [3]: 13.5% | increase of activity time in comparison with the intact animals [3]: 8.2% | increase of distance traveled in comparison with the intact animals [3]: 5.1% | increase of quantity of openings investigated in comparison with the intact animals [3]: 78.2% | increase of study reaction time in comparison with the intact animals [3]: 76.9%
